# Data taken from patent US20130172345A1, “1-ACYL-4-(PHENOXY, BENZYLOXY, OR PHENYLAMINO)-1,2,3,4-TETRAHYDROQUINOLINE DERIVATIVES” (KOWA COMPANY, LTD., priority 2007, published 2013).
# Counter-ions that a name gives are not always drawn.
# Assays:
# [1] = tested on: K562 cells, human proerythroblast cells; experiment: Hemoglobin production in K562 cells (fluorescence of the porphyrin ring); assay type: cell-based; settings: 144 h, test compound 6 μM, 3+3 days, non-stimulated state = 100%, read-out: production amount of hemoglobin, % of control (6 μM)
# Description: K562 cells (obtained from ATCC), which are human proerythroblast cells, were seeded at a density of 1×10^5 cells/1 mL on a 24-well plate by using complete medium (RPMI-1640 medium comprising 10% bovine fetal serum). After adding the test compound having 1000× concentration (1 μL), the cells were incubated for three days in a CO2 incubator (37° C., 5% CO2). After exchanging the medium, the cells were further incubated for three days. Then, the cells were collected and counted. After adjusting them to have 3×10^5 cells, the amount of hemoglobin produced in the cells was determined by measuring fluorescence of the porphyrin ring. Specifically, the cells which had been collected by centrifugation were suspended in 2 M oxalic acid solution (500 μL) and boiled for 30 minutes under heating. After cooling the cells, the fluorescence intensity was measured by Fluorescence micro plate reader (Spectra MAX GeminiEM, manufactured by Molecular Devices Corporation) ([…]). When hemoglobin amount in non-stimulated state, i.e., without addition of any compound, was 100%, the production amount of hemoglobin induced by each compound was calculated (% of control).
# [2] = tested on: HepG2 cells originating from human liver cancer; experiment: EPO production in HepG2 cells (EPO ELISA of culture supernatant, 4% oxygen, 48 hrs); assay type: cell-based; settings: test compound 3 μM, oxygen 4%, non-stimulated state = 100%, read-out: EPO production amount, % of control (3 μM)
# Description: HepG2 cells originating from human liver cancer were seeded at a density of 1×10^4 cells per well on a 24-well plate by using minimum essential medium (MEM, manufactured by Sigma) comprising 10% bovine fetal serum. Next day, the medium was exchanged with Dulbecco's modified eagle medium (DMEM, manufactured by Sigma) comprising 10% bovine fetal serum lacking phenol red. Then, the test compound dissolved in DMSO was added thereto to obtain the final concentration of 3 μM or 10 μM while having 400 μl of the medium per well. The cells were incubated for 48 hrs in a CO2 incubator which had been adjusted to have oxygen concentration of 4%, followed by collecting the culture supernatant. The EPO concentration in the culture supernatant was immediately measured by using EPO ELISA kit (manufactured by Roche Diagnostics K.K.). Specific procedures were carried out according to the manufacturer's protocol included in the kit.
# When EPO production amount in non-stimulated state, i.e., without addition of any compound, was 100%, the EPO production amount induced by each compound was calculated (% of control).
Compound,activity at 6 µM [1] [%],activity at 3 µM [2] [%]
"CC(=O)N1c2ccccc2C(Nc2ccc(CC(N)=O)cc2)CC1C (stereo not drawn) [Compound 75, 1-acetyl-4-[(4-carbamoylmethylphenyl)amino]-2-methyl-1,2,3,4-tetrahydroquinoline]",282,346
"CC(=O)N1c2cc(F)ccc2[C@H](Oc2ccc(F)cc2)C[C@@H]1C (relative stereo) [Compound 56, cis-1-acetyl-7-fluoro-4-(4-fluorophenoxy)-2-methyl-1,2,3,4-tetrahydroquinoline]",119,213
"CC(=O)N1c2ccccc2[C@H](Oc2ccc(F)cc2)C[C@@H]1C (relative stereo) [Compound 27, cis-1-acetyl-4-(4-fluorophenoxy)-2-methyl-1,2,3,4-tetrahydroquinoline]",281,292
"CC(=O)N1c2ccccc2C(Nc2ccc(-c3ccccc3)cc2)CC1C (stereo not drawn) [Compound 25, 1-acetyl-2-methyl-4-[(1,1′-biphenyl-4-yl)amino]-1,2,3,4-tetrahydroquinoline]",,242
"CC(=O)N1c2ccc(Br)cc2C(Nc2ccccc2)CC1C (stereo not drawn) [Compound 13, 1-acetyl-6-bromo-2-methyl-4-phenylamino-1,2,3,4-tetrahydroquinoline]",365,229
"CC(=O)N1c2ccccc2C(Nc2ccc(O)cc2)CC1C (stereo not drawn) [Compound 24, cis-1-acetyl-4-[(4-hydroxyphenyl)amino]-2-methyl-1,2,3,4-tetrahydroquinoline.hydrochloride]",,117
"CC(=O)N1c2ccc(C#N)cc2C(Nc2ccc(Cl)cc2)CC1C (stereo not drawn) [Compound 117, 1-acetyl-4-[(4-chlorophenyl)amino]-6-cyano-2-methyl-1,2,3,4-tetrahydroquinoline]",,204
"CC(=O)N1c2ccc(N3CCN(C(C)C)CC3)cc2C(Nc2ccc(Cl)cc2)CC1C (stereo not drawn) [Compound 81, 1-acetyl-4-[(4-chlorophenyl)amino]-6-[(4-isopropyl)piperazino]-2-methyl-1,2,3,4-tetrahydroquinoline]",,234
"CCOC(=O)Cc1ccc(NC2CC(C)N(C(C)=O)c3ccc(F)cc32)cc1 (stereo not drawn) [Compound 122, 1-acetyl-4-[(4-ethoxycarbonylmethylphenyl)amino]-6-fluoro-2-methyl-1,2,3,4-tetrahydroquinoline]",213,139
"CC(=O)N1c2ccc(C(N)=O)cc2C(Nc2ccc(Cl)cc2)CC1C (stereo not drawn) [Compound 43, 1-acetyl-4-[(4-chlorophenyl)amino]-2-methyl-1,2,3,4-tetrahydroquinoline-6-carboxamide]",,452
"CC(=O)N1c2ccccc2[C@H](Oc2cccc(F)c2)C[C@@H]1C (relative stereo) [Compound 28, cis-1-acetyl-4-(3-fluorophenoxy)-2-methyl-1,2,3,4-tetrahydroquinoline]",216,167
"CC(=O)N1c2cc(Br)ccc2[C@H](Nc2ccccc2)C[C@@H]1C (relative stereo) [Compound 23, cis-1-acetyl-7-bromo-2-methyl-4-phenylamino-1,2,3,4-tetrahydroquinoline]",544,135
"CC(=O)N1c2ccccc2[C@H](OCc2ccccc2)C[C@@H]1C (relative stereo) [Compound 36, cis-1-acetyl-2-methyl-4-benzyloxy-1,2,3,4-tetrahydroquinoline]",83,114
"CC(=O)N1c2ccc(C(=O)O)cc2C(Nc2ccc(Cl)cc2)CC1C (stereo not drawn) [Compound 42, 1-acetyl-4-[(4-chlorophenyl)amino]-2-methyl-1,2,3,4-tetrahydroquinoline-6-carboxylic acid]",303,102
"CC(=O)N1c2ccccc2C(Nc2cccc(C)c2)CC1C (stereo not drawn) [Compound 50, 1-acety1-4-[(3-methylphenyl)amino]-2-methyl-1,2,3,4-tetrahydroquinoline]",,289
"COc1cccc(NC2CC(C)N(C(C)=O)c3ccccc32)c1 (stereo not drawn) [Compound 11, 1-acetyl-4-[(3-methoxyphenyl)amino]-2-methyl-1,2,3,4-tetrahydroquinoline]",361,163
"CC(=O)N1c2ccccc2C(Nc2ccc(C(C)C)cc2)CC1C (stereo not drawn) [Compound 21, 1-acetyl-4-[(4-isopropylphenyl)amino]-2-methyl-1,2,3,4-tetrahydroquinoline]",301,231

Compound,activity at 6 µM [1] [%],activity at 3 µM [2] [%]
"CC(=O)N1c2ccc(N3CCN(C(=O)C(C)C)CC3)cc2C(Nc2ccc(NS(C)(=O)=O)cc2)CC1C (stereo not drawn) [Compound 111, 1-acetyl-6-[(4-isopropylcarbonyl)piperazino]-4-[(4-methanesulfonylaminophenyl)amino]-2-methyl-1,2,3,4-tetrahydroquinoline]",46,126
"CC(=O)N1c2ccc(C)cc2C(Nc2ccc(C)cc2)CC1C (stereo not drawn) [Compound 2, 1-acetyl-2,6-dimethyl-4-[(4-methylphenyl)amino]-1,2,3,4-tetrahydroquinoline]",,167
"CC(=O)N1c2ccccc2C(N(C)c2ccccc2)CC1C (stereo not drawn) [Compound 46, 1-acetyl-4-(N-methyl-N-phenylamino)-2-methyl-1,2,3,4-tetrahydroquinoline]",326,391
"CCOC(=O)c1ccc2c(c1)C(Nc1ccc(CC#N)cc1)CC(C)N2C(C)=O (stereo not drawn) [Compound 103, ethyl 1-acetyl-4-[(4-cyanomethylphenyl)amino]-2-methyl-1,2,3,4-tetrahydroquinoline-6-carboxylate]",485,108
"CONC(=O)c1ccc2c(c1)C(Nc1ccc(Cl)cc1)CC(C)N2C(C)=O (stereo not drawn) [Compound 118, 1-acetyl-4-[(4-chlorophenyl)amino]-N-methoxy-2-methyl-1,2,3,4-tetrahydroquinoline-6-carboxamide.hydrochloride]",,138
"CC(=O)N1c2ccccc2[C@H](Nc2ccc(N3CCN(S(C)(=O)=O)CC3)cc2)C[C@@H]1C (relative stereo) [Compound 78, cis-1-acetyl-4-{[4-(4-methanesulfonylpiperazinyl)phenyl]amino}-2-methyl-1,2,3,4-tetrahydroquinoline]",210,217
"CC(=O)N1c2ccccc2C(Oc2ccc(N3CCOCC3)cc2)CC1C (stereo not drawn) [Compound 55, 1-acetyl-4-(4-morpholinophenoxy)-2-methyl-1,2,3,4-tetrahydroquinoline]",,134
"CC(=O)N1c2ccc(F)cc2C(Nc2ccc(CC(=O)O)cc2)CC1C (stereo not drawn) [Compound 123, 1-acetyl-4-[(4-carboxymethylphenyl)amino]-6-fluoro-2-methyl-1,2,3,4-tetrahydroquinoline]",,142
"CC(=O)N1c2ccc(N3CCN(S(C)(=O)=O)CC3)cc2C(Nc2ccc(Cl)cc2)CC1C (stereo not drawn) [Compound 80, 1-acetyl-6-[(4-methanesulfonyl)piperazino]-4-[(4-chlorophenyl)amino]-2-methyl-1,2,3,4-tetrahydroquinoline]",,219
"CC(=O)N1c2ccccc2C(Nc2ccccc2C)CC1C (stereo not drawn) [Compound 49, 1-acetyl-4-[(2-methylphenyl)amino]-2-methyl-1,2,3,4-tetrahydroquinoline]",,271
"CC(=O)N1c2ccccc2C(Nc2ccc(C)cc2)CC1C (stereo not drawn) [Compound 51, 1-acety1-4-[(4-methylphenyl)amino]-2-methyl-1,2,3,4-tetrahydroquinoline]",,239
"CC(=O)N1c2ccccc2C(Nc2ccc(C(F)(F)F)cc2)CC1C (stereo not drawn) [Compound 52, 1-acetyl-2-methyl-4-[(4-trifluoromethylphenyl)amino]-1,2,3,4-tetrahydroquinoline]",,314
"COC(=O)c1cc(NC2CC(C)N(C(C)=O)c3ccccc32)ccc1O (stereo not drawn) [Compound 108, 1-acetyl-4-[(4-hydroxy-3-methoxycarbonylphenyl)amino]-2-methyl-1,2,3,4-tetrahydroquinoline.hydrochloride]",399,
"CC(=O)N1c2ccccc2C(Oc2ccc(N)cc2)CC1C (stereo not drawn) [Compound 68, 1-acetyl-4-(4-aminophenoxy)-2-methyl-1,2,3,4-tetrahydroquinoline]",154,
"CCOC(=O)Cc1ccc(NC2CC(C)N(C(C)=O)c3ccccc32)cc1 (stereo not drawn) [Compound 70, 1-acetyl-4-[(4-ethoxycarbonylmethylphenyl)amino]-2-methyl-1,2,3,4-tetrahydroquinoline]",,165
"CC(=O)N1c2ccc(N3CCOCC3)cc2C(Nc2ccc(CC(N)=O)cc2)CC1C (stereo not drawn) [Compound 90, 1-acetyl-4-[(4-carbamoylmethylphenyl)amino]-2-methyl-6-morpholino-1,2,3,4-tetrahydroquinoline]",241,
